Test results: patent publication US20240317724A1, “3,4-METHYLENEDIOXYMETHAMPHETAMINE AND RELATED PS[…] USES THEREOF” (Terran Biosciences Inc., priority 2021, published 2024)

Assay: Single oral (PO) dose pharmacokinetics study in rats; plasma concentration of MDMA (and prodrug) by LC-MS/MS
Conditions: male SD rats
[1] = 0.50 h after oral dosing of prodrug 10 mg/Kg
[2] = 1.00 h after oral dosing of prodrug 10 mg/Kg
[3] = 2.00 h after oral dosing of prodrug 10 mg/Kg
[4] = 4.00 h after oral dosing of prodrug 10 mg/Kg
[5] = 7.00 h after oral dosing of prodrug 10 mg/Kg
[6] = 24.0 h after oral dosing of prodrug 10 mg/Kg

SMILES | Mean plasma concentration of metabolite MDMA [1] | Mean plasma concentration of metabolite MDMA [2] | Mean plasma concentration of metabolite MDMA [3] | Mean plasma concentration of metabolite MDMA [4] | Mean plasma concentration of metabolite MDMA [5] | Mean plasma concentration of metabolite MDMA [6]
CC(Cc1ccc2c(c1)OCO2)N(C)C(=O)C1CCOC1 (stereo not drawn) [N-[2-(2H-1,3-Benzodioxol-5-yl)-1-methyl-ethyl]-N-methyl-tetrahydro-3-furamide] | BLQ (BLQ: Below Lower Limit of Quantification (0.5 ng/mL)) | BLQ (BLQ: Below Lower Limit of Quantification (0.5 ng/mL)) | BLQ (BLQ: Below Lower Limit of Quantification (0.5 ng/mL)) | BLQ (BLQ: Below Lower Limit of Quantification (0.5 ng/mL)) | BLQ (BLQ: Below Lower Limit of Quantification (0.5 ng/mL)) | BLQ (BLQ: Below Lower Limit of Quantification (0.5 ng/mL))
CC(Cc1ccc2c(c1)OCO2)N(C)C(=O)C1(C)CCOCC1 (stereo not drawn) [N-[2-(2H-1,3-Benzodioxol-5-yl)-1-methylethyl]-N-methyl-4-methyltetrahydro-2H-pyran-4-carboxamide] | BLQ (BLQ: Below Lower Limit of Quantification (0.5 ng/mL)) | BLQ (BLQ: Below Lower Limit of Quantification (0.5 ng/mL)) | BLQ (BLQ: Below Lower Limit of Quantification (0.5 ng/mL)) | BLQ (BLQ: Below Lower Limit of Quantification (0.5 ng/mL)) | BLQ (BLQ: Below Lower Limit of Quantification (0.5 ng/mL)) | BLQ (BLQ: Below Lower Limit of Quantification (0.5 ng/mL))
CC(Cc1ccc2c(c1)OCO2)N(C)C(=O)OC1COC1 (stereo not drawn) [Oxetane-3-yl carbamate prodrug of MDMA, Oxetan-3-yl N-[2-(1,3-benzodioxol-5-yl)-1-methyl-ethyl]-N-methyl-carbamate] | BLQ (BLQ: Below Lower Limit of Quantification (0.5 ng/mL)) | BLQ (BLQ: Below Lower Limit of Quantification (0.5 ng/mL)) | BLQ (BLQ: Below Lower Limit of Quantification (0.5 ng/mL)) | BLQ (BLQ: Below Lower Limit of Quantification (0.5 ng/mL)) | BLQ (BLQ: Below Lower Limit of Quantification (0.5 ng/mL)) | BLQ (BLQ: Below Lower Limit of Quantification (0.5 ng/mL))
CCCOC(=O)N(C)C(C)Cc1ccc2c(c1)OCO2 (stereo not drawn) [Propyl carbamate prodrug of MDMA, propyl N-[2-(1,3-benzodioxol-5-yl)-1-methyl-ethyl]-N-methyl-carbamate] | BLQ (BLQ: Below Lower Limit of Quantification (0.5 ng/mL)) | BLQ (BLQ: Below Lower Limit of Quantification (0.5 ng/mL)) | BLQ (BLQ: Below Lower Limit of Quantification (0.5 ng/mL)) | BLQ (BLQ: Below Lower Limit of Quantification (0.5 ng/mL)) | BLQ (BLQ: Below Lower Limit of Quantification (0.5 ng/mL)) | BLQ (BLQ: Below Lower Limit of Quantification (0.5 ng/mL))
CC(Cc1ccc2c(c1)OCO2)N(C)C(=O)C1CCOCC1 (stereo not drawn) [Pyran amide prodrug of MDMA, N-[2-(2H-1,3-Benzodioxol-5-yl)-1-methyl-ethyl]-N-methyl-tetrahydro-2H-pyran-4-carboxamide] | BLQ (BLQ: Below Lower Limit of Quantification (0.5 ng/mL)) | BLQ (BLQ: Below Lower Limit of Quantification (0.5 ng/mL)) | BLQ (BLQ: Below Lower Limit of Quantification (0.5 ng/mL)) | BLQ (BLQ: Below Lower Limit of Quantification (0.5 ng/mL)) | BLQ (BLQ: Below Lower Limit of Quantification (0.5 ng/mL)) | BLQ (BLQ: Below Lower Limit of Quantification (0.5 ng/mL))
CC(Cc1ccc2c(c1)OCO2)N(C)C(=O)CN(C)C(=O)[C@@H](N)Cc1ccccc1 (stereo partly drawn) [SarcPhe prodrug of MDMA, (2S)-2-amino-N-[2-[[2-(1,3-benzodioxol-5-yl)-1-methyl-ethyl]-methyl-amino]-2-oxo-ethyl]-N-methyl-3-phenyl-propanamide] | BLQ (BLQ: Below Lower Limit of Quantification (0.5 ng/mL)) | BLQ (BLQ: Below Lower Limit of Quantification (0.5 ng/mL)) | BLQ (BLQ: Below Lower Limit of Quantification (0.5 ng/mL)) | BLQ (BLQ: Below Lower Limit of Quantification (0.5 ng/mL)) | BLQ (BLQ: Below Lower Limit of Quantification (0.5 ng/mL)) | BLQ (BLQ: Below Lower Limit of Quantification (0.5 ng/mL))
CC(Cc1ccc2c(c1)OCO2)N(C)C(=O)OC1CCOC1 (stereo not drawn) [THF carbamate prodrug of MDMA, tetrahydrofuran-3-yl N-[2-(1,3-benzodioxol-5-yl)-1-methyl-ethyl]-N-methyl-carbamate] | BLQ (BLQ: Below Lower Limit of Quantification (0.5 ng/mL)) | BLQ (BLQ: Below Lower Limit of Quantification (0.5 ng/mL)) | BLQ (BLQ: Below Lower Limit of Quantification (0.5 ng/mL)) | BLQ (BLQ: Below Lower Limit of Quantification (0.5 ng/mL)) | BLQ (BLQ: Below Lower Limit of Quantification (0.5 ng/mL)) | BLQ (BLQ: Below Lower Limit of Quantification (0.5 ng/mL))
CC(Cc1ccc2c(c1)OCO2)N(C)C(=O)C(C)(C)C (stereo not drawn) [Tert-butyl amide prodrug of MDMA, N-[2-(2H-1,3-Benzodioxol-5-yl)-1-methyl-ethyl]-N-methyl-2,2-dimethylpropionamide] | BLQ (BLQ: Below Lower Limit of Quantification (0.5 ng/mL)) | BLQ (BLQ: Below Lower Limit of Quantification (0.5 ng/mL)) | BLQ (BLQ: Below Lower Limit of Quantification (0.5 ng/mL)) | BLQ (BLQ: Below Lower Limit of Quantification (0.5 ng/mL)) | BLQ (BLQ: Below Lower Limit of Quantification (0.5 ng/mL)) | BLQ (BLQ: Below Lower Limit of Quantification (0.5 ng/mL))
CC(Cc1ccc2c(c1)OCO2)N(C)C(=O)OC(C)(C)C (stereo not drawn) [Tert-butyl carbamate prodrug of MDMA, tert-butyl N-[2-(1,3-benzodioxol-5-yl)-1-methyl-ethyl]-N-methyl-carbamate] | BLQ (BLQ: Below Lower Limit of Quantification (0.5 ng/mL)) | BLQ (BLQ: Below Lower Limit of Quantification (0.5 ng/mL)) | BLQ (BLQ: Below Lower Limit of Quantification (0.5 ng/mL)) | BLQ (BLQ: Below Lower Limit of Quantification (0.5 ng/mL)) | BLQ (BLQ: Below Lower Limit of Quantification (0.5 ng/mL)) | BLQ (BLQ: Below Lower Limit of Quantification (0.5 ng/mL))
